Experimental data published in paper PMC6028563, “Probing Substituents in the 1- and 3-Position: Tetrahydropyrazino-Annelated Water-Soluble Xanthine Derivatives as Multi-Target Drugs With Potent Adenosine Receptor Antagonistic Activity” (Frontiers in Chemistry, 2018).

Assays:
human A2B AR = target: T1, human A2B AR (Homo sapiens, UniProt P29275); experiment: Radioligand binding assay at human A2B AR vs. [^3H]PSB-603; conditions: for Ki: CHO cell membranes, n = 2 (n = 3 where marked a), read-out: Ki ± SEM, A2B vs. [^3H]PSB-603; for inhibition at 1 µM: at 1,000 nM, read-out: % inhibition of radioligand binding at indicated concentration, A2B vs. [^3H]PSB-603
T1 construct: expressed in transfected cells; host or cells: CHO cells
T1 sequence (P29275 1-332): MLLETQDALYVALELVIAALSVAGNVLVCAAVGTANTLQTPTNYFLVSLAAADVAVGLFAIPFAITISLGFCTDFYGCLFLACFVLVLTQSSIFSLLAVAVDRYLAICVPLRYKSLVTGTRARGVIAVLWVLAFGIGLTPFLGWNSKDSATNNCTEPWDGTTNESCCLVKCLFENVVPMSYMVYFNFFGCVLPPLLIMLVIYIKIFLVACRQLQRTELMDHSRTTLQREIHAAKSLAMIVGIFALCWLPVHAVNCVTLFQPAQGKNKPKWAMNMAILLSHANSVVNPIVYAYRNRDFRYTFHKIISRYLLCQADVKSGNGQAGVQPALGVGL
Description: (§1) Membrane preparations and radioligand binding assays at rat A1 (rat brain cortex) and rat A2A ARs (rat brain striatum) were performed as previously described (Ozola et al., [2003]; Alnouri et al., [2015]). For assays at human A1, A2A, A2B, and A3 ARs, CHO cell membranes expressing one of the human AR subtypes were used as previously reported (Klotz et al., [1998]; Alnouri et al., [2015]; De Filippo et al., [2016]).
(§2) The synthesized tetrahydropyrazino[2,1-f ]purinediones 13–20 were evaluated in radioligand binding assays for their affinity to A1 ARs of rat brain cortical membrane and to A2A ARs of rat brain striatal membrane preparations. Selected compounds were further investigated for their affinity to human A1 and A2A ARs recombinantly expressed in Chinese hamster ovary (CHO) cells. All compounds were additionally investigated for their affinity to human A2B and A3 ARs recombinantly expressed in CHO cells to determine their AR subtype selectivity. […] It is well known that all xanthine derivatives lacking a ribose moiety, including tricyclic compounds, can only block ARs, but never act as AR agonists; therefore, additional functional studies were not required. […] Potent MAO-B inhibitors were additionally investigated for inhibition of human MAO-A to assess their selectivity. Results are presented in Tables 1–6, and data of standard ligands are included for comparison.

human A1 AR = target: T2, human A1 AR (Homo sapiens, UniProt P30542); experiment: Radioligand binding assay at human A1 AR vs. [^3H]CCPA; conditions: human (h); CHO cell membranes; n = 3
T2 construct: expressed in transfected cells; host or cells: CHO cells
T2 sequence (P30542 1-326): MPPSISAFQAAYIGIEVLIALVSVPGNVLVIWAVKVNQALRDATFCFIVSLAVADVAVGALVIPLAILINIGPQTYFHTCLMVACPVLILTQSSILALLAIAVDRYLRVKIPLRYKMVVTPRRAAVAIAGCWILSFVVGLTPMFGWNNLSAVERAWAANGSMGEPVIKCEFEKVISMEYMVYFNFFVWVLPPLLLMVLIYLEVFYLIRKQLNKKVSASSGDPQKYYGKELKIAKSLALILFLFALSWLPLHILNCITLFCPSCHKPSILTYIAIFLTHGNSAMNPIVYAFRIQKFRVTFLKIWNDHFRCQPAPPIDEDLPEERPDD
Description: as §1, §2

rat A2A AR = target: T3, rat A2A AR (Rattus norvegicus, UniProt P30543); experiment: Radioligand binding assay at rat A2A AR (rat brain striatum) vs. [^3H]MSX-2; conditions: rat (r); for Ki: rat brain striatum, n = 3, read-out: Ki ± SEM, A2A vs. [^3H]MSX-2; for % inhibition of radioligand binding at indicated concentration, A2A vs. [^3H]MSX-2: at 1,000 nM
T3 construct: A2A ARs of rat brain striatal membrane preparations; from tissue; host or cells: rat brain striatum membranes
Description: as §1, §2

recombinant human MAO-A = target: T4, recombinant human MAO-A (Homo sapiens, UniProt P21397); experiment: Monoamine oxidase assay (Amplex Red), MAO-A; format: biochemical; conditions: for inhibition at 10 µM: at 10,000 nM, read-out: % inhibition at indicated concentration, Human MAO-A; for IC50: n = 3, read-out: IC50 ± SEM, Human MAO-A
T4 construct: purchased Sigma-Aldrich M7316; host or cells: baculovirus-infected insect cells
T4 sequence (P21397 1-527): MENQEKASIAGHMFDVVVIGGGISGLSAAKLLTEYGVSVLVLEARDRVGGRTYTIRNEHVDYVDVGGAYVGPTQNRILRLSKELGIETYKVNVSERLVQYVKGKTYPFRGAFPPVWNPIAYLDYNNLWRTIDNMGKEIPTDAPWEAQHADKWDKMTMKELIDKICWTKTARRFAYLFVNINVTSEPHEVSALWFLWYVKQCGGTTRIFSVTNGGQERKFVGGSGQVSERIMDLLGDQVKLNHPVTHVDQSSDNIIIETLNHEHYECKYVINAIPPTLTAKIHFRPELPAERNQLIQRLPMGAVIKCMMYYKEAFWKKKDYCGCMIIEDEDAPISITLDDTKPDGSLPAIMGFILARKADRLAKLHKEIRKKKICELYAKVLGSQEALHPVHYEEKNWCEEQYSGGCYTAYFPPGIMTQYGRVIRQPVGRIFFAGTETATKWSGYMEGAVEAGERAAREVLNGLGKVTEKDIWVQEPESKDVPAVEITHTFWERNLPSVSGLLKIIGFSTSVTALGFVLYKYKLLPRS
Description: (§3) The determination of MAO-A and MAO-B inhibition was performed using commercially available recombinant human MAO-A and MAO-B enzymes expressed in baculovirus-infected insects sells (Sigma-Aldrich, M7316 and M7441) applying the commercially available Amplex® Red monoamine oxidase assay kit (Invitrogen A12214). The assays were performed as previously described. The determination of rat MAO-B inhibition was performed using mitochondrial-enriched fractions from male Sprague Dawley rat livers. […]

human A3 AR = target: T5, human A3 AR (Homo sapiens, UniProt P0DMS8); experiment: Radioligand binding assay at human A3 AR vs. [^3H]PSB-11; conditions: for Ki: CHO cell membranes, n = 2 (n = 3 where marked a), read-out: Ki ± SEM, A3 vs. [^3H]PSB-11
T5 construct: expressed in transfected cells; host or cells: CHO cells
T5 sequence (P0DMS8 1-318): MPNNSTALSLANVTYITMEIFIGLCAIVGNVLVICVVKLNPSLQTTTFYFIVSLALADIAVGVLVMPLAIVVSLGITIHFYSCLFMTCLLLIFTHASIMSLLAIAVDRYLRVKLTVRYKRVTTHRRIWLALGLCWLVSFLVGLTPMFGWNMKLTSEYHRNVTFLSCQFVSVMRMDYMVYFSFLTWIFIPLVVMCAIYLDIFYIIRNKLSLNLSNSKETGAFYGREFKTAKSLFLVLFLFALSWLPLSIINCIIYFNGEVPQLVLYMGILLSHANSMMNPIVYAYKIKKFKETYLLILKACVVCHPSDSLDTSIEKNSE
Description: as §1, §2

rat A1 AR = target: T6, rat A1 AR (Rattus norvegicus, UniProt P25099); experiment: Radioligand binding assay at rat A1 AR (rat brain cortex) vs. [^3H]CCPA; conditions: rat (r); rat brain cortex; n = 3
T6 construct: A1 ARs of rat brain cortical membrane; from tissue; host or cells: rat brain cortex membranes
T6 sequence (P25099 1-326): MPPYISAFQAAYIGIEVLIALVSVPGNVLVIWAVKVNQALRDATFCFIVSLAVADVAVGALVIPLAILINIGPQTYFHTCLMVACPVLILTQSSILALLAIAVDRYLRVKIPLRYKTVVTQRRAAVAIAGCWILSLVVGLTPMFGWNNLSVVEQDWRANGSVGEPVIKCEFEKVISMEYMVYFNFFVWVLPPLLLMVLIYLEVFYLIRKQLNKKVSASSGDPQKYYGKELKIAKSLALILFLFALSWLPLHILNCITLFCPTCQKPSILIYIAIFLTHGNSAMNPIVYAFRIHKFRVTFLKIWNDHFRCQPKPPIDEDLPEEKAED
Description: as §1, §2

recombinant human MAO-B = target: T7, recombinant human MAO-B (Homo sapiens, UniProt P27338); experiment: Monoamine oxidase assay (Amplex Red), MAO-B; format: biochemical; conditions: for IC50: n = 3, read-out: IC50 ± SEM, Human MAO-B; for inhibition at 10 µM: at 10,000 nM (10 μM), read-out: % inhibition at indicated concentration, Human MAO-B
T7 construct: purchased Sigma-Aldrich M7441; host or cells: baculovirus-infected insect cells
T7 sequence (P27338 1-520): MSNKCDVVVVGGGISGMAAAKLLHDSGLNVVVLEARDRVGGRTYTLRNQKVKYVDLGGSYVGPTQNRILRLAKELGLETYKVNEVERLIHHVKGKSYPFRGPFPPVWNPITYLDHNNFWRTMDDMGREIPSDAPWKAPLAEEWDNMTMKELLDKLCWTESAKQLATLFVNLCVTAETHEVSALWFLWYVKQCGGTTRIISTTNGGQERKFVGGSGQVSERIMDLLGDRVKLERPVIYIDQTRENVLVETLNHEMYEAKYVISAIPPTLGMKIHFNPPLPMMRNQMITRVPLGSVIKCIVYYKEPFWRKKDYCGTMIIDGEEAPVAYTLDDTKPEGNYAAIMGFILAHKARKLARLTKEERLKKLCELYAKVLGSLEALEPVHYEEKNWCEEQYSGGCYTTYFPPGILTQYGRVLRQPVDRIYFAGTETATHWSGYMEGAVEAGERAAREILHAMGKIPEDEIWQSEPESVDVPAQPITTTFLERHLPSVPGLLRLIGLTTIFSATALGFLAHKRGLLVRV
Description: as §3

human A2A AR = target: T8, human A2A AR (Homo sapiens, UniProt P29274); experiment: Radioligand binding assay at human A2A AR vs. [^3H]MSX-2; conditions: CHO cell membranes, n = 3, read-out: Ki ± SEM, A2A vs. [^3H]MSX-2
T8 construct: expressed in transfected cells; host or cells: CHO cells
Description: as §1, §2

T8 sequence (P29274 whole entry): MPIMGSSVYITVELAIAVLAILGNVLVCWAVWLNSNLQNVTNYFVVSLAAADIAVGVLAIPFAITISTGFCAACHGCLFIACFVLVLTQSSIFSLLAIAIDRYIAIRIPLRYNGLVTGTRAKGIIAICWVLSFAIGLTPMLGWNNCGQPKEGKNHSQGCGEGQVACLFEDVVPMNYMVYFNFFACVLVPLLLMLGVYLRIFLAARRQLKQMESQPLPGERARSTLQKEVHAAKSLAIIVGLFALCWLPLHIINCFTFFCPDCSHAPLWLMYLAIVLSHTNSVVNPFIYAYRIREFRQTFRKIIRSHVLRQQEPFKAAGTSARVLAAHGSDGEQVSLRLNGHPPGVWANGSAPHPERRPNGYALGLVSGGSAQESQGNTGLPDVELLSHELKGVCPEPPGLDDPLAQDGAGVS
T3 sequence (P30543 whole entry): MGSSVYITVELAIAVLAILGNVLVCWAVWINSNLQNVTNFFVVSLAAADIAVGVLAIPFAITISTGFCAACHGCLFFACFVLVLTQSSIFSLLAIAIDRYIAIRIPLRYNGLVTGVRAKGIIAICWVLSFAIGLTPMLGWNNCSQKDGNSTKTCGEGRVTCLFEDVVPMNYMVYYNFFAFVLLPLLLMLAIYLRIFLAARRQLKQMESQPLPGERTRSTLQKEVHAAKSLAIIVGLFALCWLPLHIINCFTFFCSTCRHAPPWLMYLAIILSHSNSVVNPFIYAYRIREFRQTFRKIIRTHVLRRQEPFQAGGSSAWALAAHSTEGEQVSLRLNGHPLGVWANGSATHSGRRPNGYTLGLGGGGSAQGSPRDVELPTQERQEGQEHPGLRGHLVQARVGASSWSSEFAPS

SMILES	Ki (human A2B AR) [nM]	inhibition at 1 µM (human A2B AR) [%]	Ki (human A1 AR) [nM]	Ki (rat A2A AR) [nM]	inhibition at 10 µM (recombinant human MAO-A) [%]	IC50 (recombinant human MAO-A) [nM]	Ki (human A3 AR) [nM]	Ki (rat A1 AR) [nM]	IC50 (recombinant human MAO-B) [nM]	Ki (human A2A AR) [nM]	inhibition at 10 µM (human A3 AR; at 10,000 nM, read-out: % inhibition of radioligand binding at indicated concentration, A3 vs. [^3H]PSB-11) [%]	inhibition at 10 µM (recombinant human MAO-B) [%]	% inhibition of radioligand binding at indicated concentration, A2A vs. [^3H]MSX-2 (rat A2A AR) [%]	inhibition at 1 µM (human A3 AR; at 1,000 nM, read-out: % inhibition of radioligand binding at indicated concentration, A3 vs. [^3H]PSB-11) [%]
CCn1c(=O)c2c(nc3n2CCN(Cc2cc(F)cc(C(F)(F)F)c2)C3)n(C)c1=O [Compound 14p, 3-ethyl-8-(3-fluoro-5-(trifluoromethyl)benzyl)-1-methyl-6,7,8,9-tetrahydropyrazino[2,1-f]purine-2,4(1H,3H)-dione]	> 1000	5	330 ± 67	801 ± 99			> 10000	111 ± 25	> 10000	503 ± 121	39	23		
CCn1c(=O)c2c(nc3n2CCN(Cc2cccc(F)c2)C3)n(CC)c1=O [Compound 15b, 1,3-diethyl-8-(3-fluorobenzyl)-6,7,8,9-tetrahydropyrazino[2,1-f]purine-2,4(1H,3H)-dione]	> 1000	9	207 ± 11	1580			7020	47.2 ± 19.9	≥ 10000			49		
CCn1c(=O)c2c(nc3n2CCN(Cc2cccc(Cl)c2)C3)n(CC)c1=O [Compound 15c, 8-(3-chlorobenzyl)-1,3-diethyl-6,7,8,9-tetrahydropyrazino[2,1-f]purine-2,4(1H,3H)-dione]	> 1000	12	128 ± 17	> 1000			5410	85.9 ± 28.6	≥ 10000	2380		47	22	
CCn1c(=O)c2c(nc3n2CCN(Cc2ccc(Br)cc2)C3)n(CC)c1=O [Compound 15e, 8-(4-bromobenzyl)-1,3-diethyl-6,7,8,9-tetrahydropyrazino[2,1-f]purine-2,4(1H,3H)-dione]	> 1000	39		1140	25	> 10000	> 1000	54 ± 9.1	6510	4420				12
CCn1c(=O)c2c(nc3n2CCN(Cc2ccc(Cl)c(C(F)(F)F)c2)C3)n(CC)c1=O [Compound 15p, 8-(4-chloro-3-(trifluoromethyl)benzyl)-1,3-diethyl-6,7,8,9-tetrahydropyrazino[2,1-f]purine-2,4(1H,3H)-dione]	> 1000	32	129 ± 22	> 1000	6		7180	588 ± 28				67	40	

Other lines, results leading:

Ki (human A2B AR) [nM]	inhibition at 1 µM (human A2B AR) [%]	Ki (human A1 AR) [nM]	Ki (rat A2A AR) [nM]	inhibition at 10 µM (recombinant human MAO-A) [%]	IC50 (recombinant human MAO-A) [nM]	Ki (human A3 AR) [nM]	Ki (rat A1 AR) [nM]	IC50 (recombinant human MAO-B) [nM]	Ki (human A2A AR) [nM]	inhibition at 10 µM (human A3 AR; at 10,000 nM, read-out: % inhibition of radioligand binding at indicated concentration, A3 vs. [^3H]PSB-11) [%]	inhibition at 10 µM (recombinant human MAO-B) [%]	% inhibition of radioligand binding at indicated concentration, A2A vs. [^3H]MSX-2 (rat A2A AR) [%]	inhibition at 1 µM (human A3 AR; at 1,000 nM, read-out: % inhibition of radioligand binding at indicated concentration, A3 vs. [^3H]PSB-11) [%]	SMILES
> 1000	1	298 ± 52	981 ± 116	19	> 10000	15600	36.2 ± 9.9	3740						CCn1c(=O)c2c(nc3n2CCN(Cc2cc(F)cc(Cl)c2)C3)n(C)c1=O [Compound 14n, 8-(3-chloro-5-fluorobenzyl)-3-ethyl-1-methyl-6,7,8,9-tetrahydropyrazino[2,1-f]purine-2,4(1H,3H)-dione]
496 ± 135		13.6 ± 2.1	1040			7220	21.5 ± 8.3	≥ 10000	1050		49			CCn1c(=O)c2c(nc3n2CCN(Cc2cccc(Br)c2)C3)n(CC)c1=O [Compound 15d, 8-(3-bromobenzyl)-1,3-diethyl-6,7,8,9-tetrahydropyrazino[2,1-f]purine-2,4(1H,3H)-dione]
